Assays:
[1] = tested on: recombinant HMPV CAN97-83 (MPV-GFP1); assay: HMPV antiviral assay (MPV-GFP1 eGFP fluorescence in Vero E6 cells); type: cell-based; details: human metapneumovirus, Vero C1008, 120 h, read-out: HMPV EC50
Procedure: HMPV antiviral activity was evaluated using a recombinant version of HMPV CAN97-83 engineered to contain the coding sequence for enhanced green fluorescence protein (eGFP) in the 3′ end of the virus genome (MPV-GFP1, ViraTree). Vero E6 cells ([…]) were seeded at a density of 12,000 cells/100 μL/well into 96-well cell plates one day prior to the assay. On the day of screening, the cell culture medium was aspirated from the wells and cells were washed twice with serum-free Eagle's Modified Essential Medium (EMEM, ATCC #) containing 1% penicillin-streptomycin (Invitrogen) (SF-EMEM). Cell washes were performed by dispensing 100 μL SF-EMEM per well and immediately aspirating the wash medium from the well. Following the second wash step, serum-free OptiMEM (Invitrogen, Cat No.) (SF-OptiMEM) containing 0.5 μg/mL TPCK-Trypsin (VENDOR) and 1% penicillin-streptomycin was added to the cells at 50 μL/well. Compounds were added into the 96-well plates using a JANUS automated liquid handling system (VENDOR). Compounds were initially diluted 1:50 into an intermediate 96-well plate containing SF-OptiMEM prior to transfer to the assay plate (25 μL/well). Each of the test compounds were tested in duplicate wells at final concentrations starting from 8 μM or 2 μM using ½ stepwise dilutions for a total of 8 points. Virus infection was performed by preparing a working stock of MPV-GFP1 at a multiplicity of infection (MOI) equal to 0.05/25 μL and aliquoting 25 μL of virus inoculum to the compound and positive control wells. SF-OptiMEM was added (25 μL/well) to the appropriate wells to serve as a virus-free negative control for the assay. The final DMSO concentration of all wells is 0.5%. Plates were incubated at 32° C., 5% CO2 for 5 days.
After 5 days incubation, eGFP fluorescence intensity was measured at […] using a Spectramax i3X plate reader (VENDOR). Percent viral inhibition was calculated using the following equation: y=[[…]−(XQ/XP)]×100 Where XQ is the fluorescence intensity measured in a well containing recombinant MPV-GFP1-infected, compound-treated cells and XP is the average fluorescence intensity measured in the wells containing untreated cells infected with recombinant virus. EC50 values were then calculated by non-linear regression using a four parameter curve logistic equation. The curve fit model employed was XLFit Dose Response One Site Model 200: y=(A+(B/(1+((x/C)^D)))) Where A is the minimum y value, B is the maximum y value, C is the log EC50 value, and D is the slope factor. […] EC50 ranges are as follows: A<0.5 μM; B>0.5 μM.

[2] = tested on: genotype A, "Long" strain RSV; assay: RSV-A assay (CPE, ATPlite readout in Hep-2 cells); type: cell-based; details: human respiratory syncytial virus, HEp-2, Hep-2 cells, genotype A "Long" strain RSV, MOI 0.1; read-out: Human RSV-A (“Long” strain) EC50
How it was run: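 Protection from RSV-induced cytopathic effect, measured as ATPlite luminescence after 5 days, gave EC50 values. Assay used genotype A Long strain at MOI 0.1 on Hep-2 cells seeded at 8,000/well in DMEM growth media with 10% FBS; compounds tested as 2-fold dilutions in duplicate.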

EC50 [2]	SMILES	EC50 [1]
–	C[C@]1(C(N)=O)COc2c1cc([C@@](O)(CNC(=O)c1cc(O)c3ncccc3c1)C(F)(F)F)nc2-c1ccc(F)cc1 [Example 363]	< 500 nM
< 200 nM	Cc1cnc2c(NC(=O)NNCC(C)(C)O)cc(C(=O)NC[C@](O)(c3cc4c(c(-c5ccc(F)cc5)n3)OC[C@]4(C)C(N)=O)C(F)(F)F)cc2c1 [Example 632]	–
< 200 nM	Cn1cc2cc(C(=O)NC[C@](O)(c3cc4c(c(-c5ccc(F)cc5)n3)OC[C@]4(C)C(N)=O)C(F)(F)F)ccc2n1 [Example 637]	–
< 200 nM	Cn1cc2cc(C(=O)NC[C@](O)(c3cc4c(c(-c5ccc(F)c(Cl)c5)n3)OC[C@]4(C)C(N)=O)C(F)(F)F)ccc2n1 [Example 639]	–
< 200 nM	CN1Cc2cc(C(=O)NC[C@](O)(c3cc4c(c(-c5ccc(F)cc5)n3)OC[C@]4(C)C(=O)NCC(C)(C)O)C(F)(F)F)ccc2C1=O [Example 643]	–
< 200 nM	CN1Cc2cc(C(=O)NC[C@](O)(c3cc4c(c(-c5ccc(F)cc5)n3)OC[C@]4(C)C(N)=O)C(F)(F)F)ccc2C1=O [Example 644]	–
< 200 nM	CN1Cc2cc(C(=O)NC[C@](O)(c3cc4c(c(-c5ccc(F)c(Cl)c5)n3)OC[C@]4(C)C(N)=O)C3CC3)ccc2C1=O [Example 645]	–
< 200 nM	CN1Cc2cc(C(=O)NC[C@](O)(c3cc4c(c(-c5ccc(F)c(Cl)c5)n3)OC[C@]4(C)C(N)=O)C(F)(F)F)ccc2C1=O [Example 646]	–
< 200 nM	COc1cc(C(=O)NC[C@](O)(c2cc3c(c(-c4ccc(F)cc4)n2)OC[C@]3(C)C(N)=O)C(F)(F)F)ccc1OCC(C)(C)O [Example 647]	–
< 200 nM	Cc1cnc2c(S(C)(=O)=O)cc(C(=O)NC[C@](O)(c3cc4c(c(-c5ccc(F)cc5)n3)OC[C@]4(C)C(N)=O)C(F)(F)F)cc2c1 [Example 648]	–
> 200 nM	COc1cc(C(=O)NC[C@](O)(c2cc3c(c(-c4ccc(F)cc4)n2)OC[C@]3(C)C(N)=O)C(F)(F)F)cc2cc(S(C)(=O)=O)cnc12 [Example 649]	–
< 200 nM	COc1cc(C(=O)NC[C@](O)(c2cc3c(c(-c4ccc(F)cc4)n2)NC[C@]3(C)CO)C(F)(F)F)ccc1OCCO [Example 650]	–
< 200 nM	C[C@]1(C(N)=O)COc2c1cc([C@@](O)(CNC(=O)c1ccc3ncc(C(F)(F)F)cc3c1)C(F)(F)F)nc2-c1ccc(F)cc1 [Example 651]	–
> 200 nM	Cc1ccc2cc(C(=O)NC[C@](O)(c3cc4c(c(-c5ccc(F)cc5)n3)OC[C@]4(C)C(N)=O)C(F)(F)F)cc(N3CCCC3=O)c2n1 [Example 652]	–
> 200 nM	Cc1ccc2cc(C(=O)NC[C@](O)(c3cc4c(c(-c5ccc(F)c(Cl)c5)n3)OC[C@]4(C)C(N)=O)C(F)(F)F)cc(N3CCCC3=O)c2n1 [Example 653]	–
< 200 nM	Cn1cc2cc(C(=O)NC[C@](O)(c3cc4c(c(-c5ccc(F)cc5)n3)OC[C@]4(C)C(N)=O)C(F)(F)F)cc(F)c2n1 [Example 654]	–
< 200 nM	CCn1cc2cc(C(=O)NC[C@](O)(c3cc4c(c(-c5ccc(F)cc5)n3)OC[C@]4(C)C(N)=O)C(F)(F)F)ccc2n1 [Example 655]	–
< 200 nM	Cc1n[nH]c2ccc(C(=O)NC[C@](O)(c3cc4c(c(-c5ccc(F)cc5)n3)OC[C@]4(C)C(N)=O)C(F)(F)F)cc12 [Example 658]	–
< 200 nM	Cc1cnc2c(N3CCNC3=O)cc(C(=O)NC[C@](O)(c3cc4c(c(-c5ccc(F)cc5)n3)OC[C@]4(C)C(N)=O)C(F)(F)F)cc2c1 [Example 659]	–
< 200 nM	Cc1cc2cc(C(=O)NC[C@](O)(c3cc4c(c(-c5ccc(F)cc5)n3)OC[C@]4(C)C(N)=O)C(F)(F)F)cc(NC(=O)NC3COC3)c2nc1C [Example 660]	–
< 200 nM	Cc1cc2cc(C(=O)NC[C@](O)(c3cc4c(c(-c5ccc(F)cc5)n3)OC[C@]4(C)C(N)=O)C(F)(F)F)cc(NC(=O)NCC(C)(C)O)c2nc1C [Example 661]	–
< 200 nM	Cc1cc2cc(C(=O)NC[C@](O)(c3cc4c(c(-c5ccc(F)cc5)n3)OC[C@]4(C)C(N)=O)C(F)(F)F)cc(NC(=O)C3(F)CC3)c2nc1C [Example 662]	–
> 200 nM	NC(=O)C1(F)COc2c1cc([C@@](O)(CNC(=O)c1cc(OC3CC3)c3ncccc3c1)C(F)(F)F)nc2-c1ccc(F)cc1 (stereo partly drawn) [Example 665]	–
< 200 nM	COc1cc(C(=O)NC[C@](O)(c2cc3c(c(-c4ccc(F)cc4)n2)OC[C@]3(F)C(N)=O)C(F)(F)F)ccc1OC1CC1 [Example 666]	–
> 200 nM	COc1cc(C(=O)NC[C@](O)(c2cc3c(c(-c4ccc(F)cc4)n2)OC[C@@]3(F)C(N)=O)C(F)(F)F)ccc1OC1CC1 [Example 667]	–
< 200 nM	COc1cc(C(=O)NC[C@](O)(c2cc3c(c(-c4ccc(F)cc4)n2)OCC3(F)C(N)=O)C(F)(F)F)cc2cc(C(F)(F)F)cnc12 (stereo partly drawn) [Example 671]	–
< 200 nM	COc1cc(C(=O)NC[C@](O)(c2cc3c(c(-c4ccc(F)cc4)n2)OCC3(F)C(N)=O)C(F)(F)F)cn2cc(C3CC3)nc12 (stereo partly drawn) [Example 672]	–
> 200 nM	C[C@@H](O)COc1ccc(C(=O)NC[C@](O)(c2cc3c(c(-c4ccc(F)cc4)n2)OC[C@]3(F)C(N)=O)C(F)(F)F)cc1OC1CC1 [Example 674]	–

SMILES	EC50 [2]	EC50 [1]
COc1cc(C(=O)NCC(O)(c2cc3c(c(-c4ccc(F)cc4)n2)OC[C@]3(C)C(=O)NC2CC2)C(F)(F)F)cc2cccnc12 (stereo partly drawn) [Example 27]	< 200 nM	< 500 nM
COc1nccc(C(=O)NC[C@](O)(c2cc3c(c(-c4ccc(F)cc4)n2)OC[C@]3(C)CNCC2CC2)C(F)(F)F)n1 [Example 34]	> 200 nM	> 500 nM
C[C@]1(CNCC2CC2)COc2c1cc([C@@](O)(CNC(=O)c1ccnc(C(F)(F)F)n1)C(F)(F)F)nc2-c1ccc(F)cc1 [Example 35]	> 200 nM	> 500 nM
COc1ncc(C(=O)NC[C@](O)(c2cc3c(c(-c4ccc(F)cc4)n2)OC[C@]3(C)CNCC2CC2)C(F)(F)F)s1 [Example 36]	> 200 nM	> 500 nM
COc1cc(C(=O)NC[C@](O)(c2cc3c(c(-c4ccc(F)cc4)n2)OC[C@]3(C)CNCC2CC2)C(F)(F)F)ccn1 [Example 37]	> 200 nM	> 500 nM
COc1cc(C(=O)NC[C@](O)(c2cc3c(c(-c4ccc(F)cc4)n2)OC[C@]3(C)CNC2(C)CC2)C(F)(F)F)cc2cccnc12 [Example 44]	< 200 nM	> 500 nM
CNC(=O)[C@@]1(C)COc2c1cc([C@@](O)(CNC(=O)c1cc(OC)c3ncccc3c1)C(F)(F)F)nc2-c1ccc(F)cc1 [Example 46]	< 200 nM	< 500 nM
COc1cc(C(=O)NC[C@](O)(c2cc3c(c(-c4ccc(F)cc4)n2)OC[C@]3(C)C(=O)NC2COC2)C(F)(F)F)cc2cccnc12 [Example 52]	< 200 nM	< 500 nM
COc1cc(C(=O)NC[C@](O)(c2cc3c(c(-c4ccc(F)cc4)n2)OC[C@]3(C)C(=O)NO)C(F)(F)F)cc2cccnc12 [Example 53]	< 200 nM	> 500 nM
CCNC(=O)[C@@]1(C)COc2c1cc([C@@](O)(CNC(=O)c1cc(OC)c3ncccc3c1)C(F)(F)F)nc2-c1ccc(F)cc1 [Example 56]	< 200 nM	< 500 nM
C[C@]1(C(N)=O)COc2c1cc([C@@](O)(CNC(=O)c1cc(OC3CC3)c3ncccc3c1)C(F)(F)F)nc2-c1ccc(F)cc1 [Example 61]	< 200 nM	< 500 nM
COc1cc(C(=O)NC[C@](O)(c2cc3c(c(-c4ccc(F)cc4)n2)OC[C@]3(C)C(N)=O)C(F)(F)F)ccc1OC1CC1 [Example 62]	< 200 nM	< 500 nM
COc1cc(C(=O)NC[C@](O)(c2cc3c(c(-c4ccc(F)cc4)n2)OC[C@]3(C)C(N)=O)C(F)(F)F)cc2ccccc12 [Example 69]	> 200 nM	> 500 nM
COc1cc(C(=O)NC[C@](O)(c2cc3c(c(-c4ccc(F)cc4)n2)OC[C@]3(C)CC#N)C(F)(F)F)cc2cccnc12 [Example 74]	< 200 nM	< 500 nM
COc1cc(C(=O)NC[C@](O)(c2cc3c(c(-c4ccc(F)cc4)n2)OC[C@]3(C)CC(N)=O)C(F)(F)F)cc2cccnc12 [Example 75]	< 200 nM	> 500 nM
C[C@]1(C(N)=O)COc2c1cc([C@](O)(CNC(=O)c1cc(OC3CC3)c3ncccc3c1)C(F)(F)F)nc2-c1ccc(F)c(Cl)c1 [Example 79]	< 200 nM	< 500 nM
